This passage reports AUC results from patent US12084430B2, “Tricyclic urea compounds as JAK2 V617F inhibitors” (Incyte Corporation, priority 2022, dated 2024).

SMILES strings stand for the structures.

Data set [1] in a line: In vivo pharmacokinetics, cynomolgus monkey. The arrangement: species or system Cynomolgus monkeys. To be noted: both sexes, plasma, oral 3.0 mg/kg, read-out: CYNO PO AUC. As to the method:
(§1) Example H. In Vivo Pharmacokinetics
(§2) Test compounds were administered to male Sprague Dawley rats or male and female Cynomolgus monkeys intravenously or via oral gavage. For intravenous (IV) dosing, test compounds were dosed at 1 mg/kg using a formulation of 10% dimethylacetamide (DMAC), 10% propylene glycol (PG) in acidified saline via IV bolus for rat or 10 min IV infusion for monkey. For oral (PO) dosing, test compounds were dosed at 3.0 mg/kg using 5% DMAC in 0.5% methylcellulose in citrate buffer (pH˜2.5). Blood samples were collected at predose and various time points up to 24 hours postdose. All blood samples were collected using EDTA as the anticoagulant and centrifuged to obtain plasma samples. The plasma concentrations of test compounds were determined by LC-MS/MS methods. The measured plasma concentrations were used to calculate PK parameters by standard noncompartmental methods using Phoenix® WinNonlin software program (version 8.0, Pharsight Corporation) or similar software. In rats and monkeys, cassette dosing of test compounds were conducted to obtain preliminary PK parameters. In vivo pharmacokinetic experiments with male beagle dogs may be performed under the conditions described above.

Data set [2] is described as follows: In vivo pharmacokinetics, rat. Also noted: species or system Sprague Dawley rats. Particulars: male, Sprague Dawley, plasma, oral 3.0 mg/kg. As to the method: as §1, §2

One may read the AUC as concentration integrated over time. As to `[2H]C([2H])([2H])n1cc(-c2[nH]c3ncc4c(c3c2-c2ccc3c(cnn3C([2H])([2H])[2H])c2)n([C@@H]2CC[C@@H](NC(=O)OC)C2)c(=O)n4C([2H])([2H])[2H])c(F)n1` [Example 6, Methyl ((1R,3R)-3-(7-(3-fluoro-1-(methyl-d3)-1H-pyrazol-4-yl)-3-(methyl-d3)-8-(1-(methyl-d3)-1H-indazol-5-yl)-2-oxo-3,6-dihydroimidazo[4,5-d]pyrrolo[2,3-b]pyridin-1(2H)-yl)cyclopentyl)carbamate], the values for the AUC in data set [1] and in data set [2] were greater than 1.5 µM·h and 0.5 to 1.5 µM·h, respectively.

For `[2H]C([2H])([2H])n1cc(-c2[nH]c3ncc4c(c3c2-c2ccc(C(C)(C)O)cc2)n([C@@H]2CC[C@@H](NC(=O)OC)C2)c(=O)n4C([2H])([2H])[2H])c(F)n1` [Example 10, Methyl ((1R,3R)-3-(7-(3-fluoro-1-(methyl-d3)-1H-pyrazol-4-yl)-8-(4-(2-hydroxypropan-2-yl)phenyl)-3-(methyl-d3)-2-oxo-3,6-dihydroimidazo[4,5-d]pyrrolo[2,3-b]pyridin-1(2H)-yl)cyclopentyl)carbamate], the AUC in data set [1] is 0.5 to 1.5 µM·h; in data set [2], greater than 1.5 µM·h.

With `[2H]C([2H])([2H])n1ncc2cc(-c3c(-c4cn(C)nc4OC)[nH]c4ncc5c(c34)n([C@@H]3CC[C@@H](NC(=O)OC)C3)c(=O)n5C)ccc21` [Example 5, Methyl ((1R,3R)-3-(7-(3-methoxy-1-methyl-1H-pyrazol-4-yl)-3-methyl-8-(1-(methyl-d3)-1H-indazol-5-yl)-2-oxo-3,6-dihydroimidazo[4,5-d]pyrrolo[2,3-b]pyridin-1(2H)-yl)cyclopentyl)carbamate], the AUC in data set [1] was greater than 1.5 µM·h; in data set [2], 0.5 to 1.5 µM·h.

With `[2H]C([2H])([2H])n1cc(-c2[nH]c3ncc4c(c3c2-c2ccc(F)cc2)n([C@@H]2CC[C@@H](NC(=O)OC)C2)c(=O)n4C([2H])([2H])[2H])c(F)n1` [Example 7, Methyl ((1R,3R)-3-(7-(3-fluoro-1-(methyl-d3)-1H-pyrazol-4-yl)-8-(4-fluorophenyl)-3-(methyl-d3)-2-oxo-3,6-dihydroimidazo[4,5-d]pyrrolo[2,3-b]pyridin-1(2H)-yl)cyclopentyl)carbamate], the AUC in data set [1] and in data set [2] was greater than 1.5 µM·h in each case.

Take `COC(=O)N[C@@H]1CC[C@@H](n2c(=O)n(C)c3cnc4[nH]c(-c5cn(C)nc5OC)c(-c5ccc(OC)c(F)c5)c4c32)C1` [Example 4, Methyl ((1R,3R)-3-(8-(3-fluoro-4-methoxyphenyl)-7-(3-methoxy-1-methyl-1H-pyrazol-4-yl)-3-methyl-2-oxo-3,6-dihydroimidazo[4,5-d]pyrrolo[2,3-b]pyridin-1(2H)-yl)cyclopentyl)carbamate]: the AUC in data set [1] and in data set [2] was greater than 1.5 µM·h throughout.

For `[2H]C([2H])([2H])n1cc(-c2[nH]c3ncc4c(c3c2-c2ccc3c(cnn3C(C)C)c2)n([C@@H]2CC[C@@H](NC(=O)OC)C2)c(=O)n4C([2H])([2H])[2H])c(F)n1` [Example 13, Methyl ((1R,3R)-3-(7-(3-fluoro-1-(methyl-d3)-1H-pyrazol-4-yl)-8-(1-isopropyl-1H-indazol-5-yl)-3-(methyl-d3)-2-oxo-3,6-dihydroimidazo[4,5-d]pyrrolo[2,3-b]pyridin-1(2H)-yl)cyclopentyl)carbamate], the AUC in data set [2] fell in the range of 0.5 to 1.5 µM·h.

As for `COC(=O)N[C@@H]1CC[C@@H](n2c(=O)n(C)c3cnc4[nH]c(-c5cn(C)nc5OC)c(-c5cccc(F)c5)c4c32)C1` [Example 3, Methyl ((1R,3R)-3-(8-(3-fluorophenyl)-7-(3-methoxy-1-methyl-1H-pyrazol-4-yl)-3-methyl-2-oxo-3,6-dihydroimidazo[4,5-d]pyrrolo[2,3-b]pyridin-1(2H)-yl)cyclopentyl)carbamate], the AUC in data set [1] and in data set [2] was greater than 1.5 µM·h throughout.

In the case of `[2H]C([2H])([2H])n1ncc2cc(-c3c(-c4cn(C([2H])([2H])C([2H])([2H])[2H])nc4F)[nH]c4ncc5c(c34)n([C@@H]3CC[C@@H](NC(=O)OC)C3)c(=O)n5C([2H])([2H])[2H])ccc21` [Example 15, Methyl ((1R,3R)-3-(7-(1-(ethyl-d5)-3-fluoro-1H-pyrazol-4-yl)-3-(methyl-d3)-8-(1-(methyl-d3)-1H-indazol-5-yl)-2-oxo-3,6-dihydroimidazo[4,5-d]pyrrolo[2,3-b]pyridin-1(2H)-yl)cyclopentyl)carbamate], the AUC in data set [2] was 0.5 to 1.5 µM·h.

Regarding `COC(=O)N[C@@H]1CC[C@@H](n2c(=O)n(C)c3cnc4[nH]c(-c5cn(C)nc5OC)c(-c5ccccc5)c4c32)C1` [Example 2, Methyl ((1R,3R)-3-(7-(3-methoxy-1-methyl-1H-pyrazol-4-yl)-3-methyl-2-oxo-8-phenyl-3,6-dihydroimidazo[4,5-d]pyrrolo[2,3-b]pyridin-1(2H)-yl)cyclopentyl)carbamate], the AUC in data set [1] and in data set [2] was greater than 1.5 µM·h throughout.

Consider `COC(=O)N[C@@H]1CC[C@@H](n2c(=O)n(C)c3cnc4[nH]c(-c5cn(C)nc5OC)c(-c5ccc(F)cc5)c4c32)C1` [Example 1, Methyl ((1R,3R)-3-(8-(4-fluorophenyl)-7-(3-methoxy-1-methyl-1H-pyrazol-4-yl)-3-methyl-2-oxo-3,6-dihydroimidazo[4,5-d]pyrrolo[2,3-b]pyridin-1(2H)-yl)cyclopentyl)carbamate], for which the AUC in data set [1] and in data set [2] was greater than 1.5 µM·h in each case.

For the molecule `[2H]C([2H])([2H])Oc1ccc(-c2c(-c3cn(C([2H])([2H])[2H])nc3F)[nH]c3ncc4c(c23)n([C@@H]2CC[C@@H](NC(=O)OC)C2)c(=O)n4C([2H])([2H])[2H])cc1` [Example 9, Methyl ((1R,3R)-3-(7-(3-fluoro-1-(methyl-d3)-1H-pyrazol-4-yl)-8-(4-(methoxy-d3)phenyl)-3-(methyl-d3)-2-oxo-3,6-dihydroimidazo[4,5-d]pyrrolo[2,3-b]pyridin-1(2H)-yl)cyclopentyl)carbamate], the AUC in data set [1] and in data set [2] was greater than 1.5 µM·h each time.

The molecule `[2H]C([2H])([2H])n1cc(-c2[nH]c3ncc4c(c3c2-c2ccc3c(cnn3CC(F)F)c2)n([C@@H]2CC[C@@H](NC(=O)OC)C2)c(=O)n4C([2H])([2H])[2H])c(F)n1` [Example 14, Methyl ((1R,3R)-3-(8-(1-(2,2-difluoroethyl)-1H-indazol-5-yl)-7-(3-fluoro-1-(methyl-d3)-1H-pyrazol-4-yl)-3-(methyl-d3)-2-oxo-3,6-dihydroimidazo[4,5-d]pyrrolo[2,3-b]pyridin-1(2H)-yl)cyclopentyl)carbamate] had an AUC in data set [2] of 0.5 to 1.5 µM·h.

With `[2H]C([2H])([2H])n1cc(-c2[nH]c3ncc4c(c3c2-c2ccc3c(c2)COC3(C)C)n([C@@H]2CC[C@@H](NC(=O)OC)C2)c(=O)n4C([2H])([2H])[2H])c(F)n1` [Example 8, Methyl ((1R,3R)-3-(8-(1,1-dimethyl-1,3-dihydroisobenzofuran-5-yl)-7-(3-fluoro-1-(methyl-d3)-1H-pyrazol-4-yl)-3-(methyl-d3)-2-oxo-3,6-dihydroimidazo[4,5-d]pyrrolo[2,3-b]pyridin-1(2H)-yl)cyclopentyl)carbamate], the AUC in data set [1] is no more than 0.5 µM·h; in data set [2], greater than 1.5 µM·h.
